system: HCV genotype 1a replicon; experiment: HCV genotype 1a replicon assay (NS3 protease activity readout); assay type: cell-based, hepatitis C virus; settings: HCV genotype 1a replicon
Method in brief: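 Genotype 1a subgenomic replicon cells (APC89, Huh7.5) were treated with compound dose-responses in G418-free medium, 0.5% DMSO final, for 48 or 72 hours at 37° C. Lysate NS3/4a protease activity measured with 15 μM FRET substrate, 20 min at 37° C (ex 340/em 509 nm); EC50 by 4-parameter fit.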

SMILES	Genotype 1a
COC(=O)NC(C(=O)N1CC(C)CC1c1nc(-c2ccc(-c3ccc(NC(=O)c4ccc(N5CCN(C(=O)C(C)(C)C)CC5C)nc4)cc3OC(F)(F)F)cc2)c[nH]1)C(C)O (centres unmarked) [Example 13-13]	D (D represents pEC50>10 (EC50<0.1 nM))
COC(=O)NC(C(=O)N1CC(C)CC1c1nc(-c2ccc(-c3ccc(NC(=O)c4ccc(N5CCN(C(=O)C(C)(C)C)CC5C)nc4)cc3OC(F)(F)F)cc2)c[nH]1)C(C)OC (centres unmarked) [Example 13-14]	D (D represents pEC50>10 (EC50<0.1 nM))
COC(=O)NC(C(=O)N1CC(C)CC1c1nc(-c2ccc(-c3ccc(NC(=O)c4ccc(N5CCN(C(=O)C(C)(C)C)CC5C)nc4)cc3OC(F)(F)F)cc2)c[nH]1)C(C)(C)O (centres unmarked) [Example 13-15]	D (D represents pEC50>10 (EC50<0.1 nM))
COC(=O)NC(C(=O)N1CC(C)CC1c1nc(-c2ccc(-c3ccc(NC(=O)c4ccc(N5CCN(C(=O)C(C)(C)CO)CC5C)nc4)cc3OC(F)(F)F)cc2)c[nH]1)C1CCOCC1 (centres unmarked) [Example 13-32]	D (D represents pEC50>10 (EC50<0.1 nM))

same assay, conditions: Hepatitis C virus, read-out: Genotype 1a, HCV genotype 1a replicon

SMILES	EC50 [nM]
COC(=O)N[C@H](C(=O)N1C[C@@H](C)C[C@H]1c1nc(-c2ccc(-c3cc(Cl)c(NC(=O)c4ccc(N5CCN(C(=O)C(C)(C)CNC(=O)C6CC6)C[C@H]5C)nc4)cc3OC(F)(F)F)cc2)c[nH]1)C(C)C [Example 12-37]	0.1 to 1
COC(=O)N[C@H](C(=O)N1C[C@@H](C)C[C@H]1c1nc(-c2ccc(-c3cc(Cl)c(NC(=O)c4ccc(N5CCN(C(=O)C(C)(C)CNC(=O)C(C)(C)C)C[C@H]5C)nc4)cc3OC(F)(F)F)cc2)c[nH]1)C(C)C [Example 12-38]	0.1 to 1
COC(=O)NCC(C)(C)C(=O)N1CCN(c2ccc(C(=O)Nc3cc(OC(F)(F)F)c(-c4ccc(-c5c[nH]c([C@@H]6C[C@H](C)CN6C(=O)[C@@H](NC(=O)OC)C(C)C)n5)cc4)cc3Cl)cn2)[C@H](C)C1 [Example 12-39]	< 0.1
CNC(=O)NCC(C)(C)C(=O)N1CCN(c2ccc(C(=O)Nc3cc(OC(F)(F)F)c(-c4ccc(-c5c[nH]c([C@@H]6C[C@H](C)CN6C(=O)[C@@H](NC(=O)OC)C(C)C)n5)cc4)cc3Cl)cn2)[C@H](C)C1 [Example 12-40]	< 0.1
CCC(=O)NCC(C)(C)C(=O)N1CCN(c2ccc(C(=O)Nc3cc(OC(F)(F)F)c(-c4ccc(-c5c[nH]c([C@@H]6C[C@H](C)CN6C(=O)[C@@H](NC(=O)OC)C(C)C)n5)cc4)cc3Cl)cn2)[C@H](C)C1 [Example 12-41]	0.1 to 1
COC(=O)N[C@H](C(=O)N1C[C@@H](C)C[C@H]1c1nc(-c2ccc(-c3cc(Cl)c(NC(=O)c4ccc(N5CCN(C(=O)C(C)(C)CNC(C)=O)C[C@H]5C)nc4)cc3OC(F)(F)F)cc2)c[nH]1)C(C)C [Example 12-42]	< 0.1
COC(=O)N[C@H](C(=O)N1C[C@@H](C)C[C@H]1c1nc(-c2ccc(-c3cc(Cl)c(NC(=O)c4ccc(N5CCN(C(=O)C(C)(C)OC)C[C@H]5C)nc4)cc3OC(F)(F)F)cc2)c[nH]1)C(C)C [Example 12-43]	< 0.1
COCC1(C(=O)N2CCN(c3ccc(C(=O)Nc4cc(OC(F)(F)F)c(-c5ccc(-c6c[nH]c([C@@H]7C[C@H](C)CN7C(=O)[C@@H](NC(=O)OC)C(C)C)n6)cc5)cc4Cl)cn3)[C@H](C)C2)CC1 [Example 12-44]	< 0.1
COCC1(C(=O)N2CCN(c3ccc(C(=O)Nc4cc(OC(F)(F)F)c(-c5ccc(-c6c[nH]c([C@@H]7C[C@H](C)CN7C(=O)[C@@H](NC(=O)OC)C(C)C)n6)cc5)cc4Cl)cn3)[C@H](C)C2)CCC1 [Example 12-45]	< 0.1
COC(=O)N[C@H](C(=O)N1C[C@@H](C)C[C@H]1c1nc(-c2ccc(-c3cc(Cl)c(NC(=O)c4ccc(N5CCN(C(=O)C(C)(C)CNS(C)(=O)=O)C[C@H]5C)nc4)cc3OC(F)(F)F)cc2)c[nH]1)C(C)C [Example 12-46]	< 0.1
COC(=O)N[C@H](C(=O)N1C[C@@H](C)C[C@H]1c1nc(-c2ccc(-c3cc(Cl)c(NC(=O)c4ccc(N5CCN(C(=O)C6(C)COC6)C[C@H]5C)nc4)cc3OC(F)(F)F)cc2)c[nH]1)C(C)C [Example 12-48]	< 0.1
COC(=O)N[C@H](C(=O)N1C[C@@H](C)C[C@H]1c1nc(-c2ccc(-c3cc(Cl)c(NC(=O)c4ccc(N5CCN(C(=O)C6CCO6)C[C@H]5C)nc4)cc3OC(F)(F)F)cc2)c[nH]1)C(C)C (some centres unmarked) [Example 12-49]	< 0.1
COC(=O)N[C@H](C(=O)N1C[C@@H](C)C[C@H]1c1nc(-c2ccc(-c3cc(Cl)c(NC(=O)c4ccc(N5CCN(C(=O)C6CNC6)C[C@H]5C)nc4)cc3OC(F)(F)F)cc2)c[nH]1)C(C)C [Example 12-51]	0.1 to 1
COC(=O)N[C@H](C(=O)N1C[C@@H](C)C[C@H]1c1nc(-c2ccc(-c3cc(Cl)c(NC(=O)c4ccc(N5CCN(C(=O)C6CC(N)C6)C[C@H]5C)nc4)cc3OC(F)(F)F)cc2)c[nH]1)C(C)C (some centres unmarked) [Example 12-52]	0.1 to 1
COC(=O)N[C@H](C(=O)N1C[C@@H](C)C[C@H]1c1nc(-c2ccc(-c3cc(Cl)c(NC(=O)c4ccc(N5CCN(C(=O)C6CC(CO)C6)C[C@H]5C)nc4)cc3OC(F)(F)F)cc2)c[nH]1)C(C)C (some centres unmarked) [Example 12-55]	< 0.1
COC(=O)N[C@H](C(=O)N1C[C@@H](C)C[C@H]1c1nc(-c2ccc(-c3cc(Cl)c(NC(=O)c4ccc(N5CCN(C(=O)C(C)(C)C(=O)O)C[C@H]5C)nc4)cc3OC(F)(F)F)cc2)c[nH]1)C(C)C [Example 12-58]	0.1 to 1
CC(C)[C@@H](C(=O)N1C[C@@H](C)C[C@H]1c1nc(-c2ccc(-c3cc(Cl)c(NC(=O)c4ccc(N5CCN(C(=O)C(C)(C)C)C[C@H]5C)nc4)cc3OC(F)(F)F)cc2)c[nH]1)N1CCCCC1 [Example 13-2]	10 to 1000

SMILES	EC50 [nM]
C[C@H]1C[C@@H](c2nc(-c3ccc(-c4cc(Cl)c(NC(=O)c5ccc(N6CCN(C(=O)C(C)(C)C)C[C@H]6C)nc5)cc4OC(F)(F)F)cc3)c[nH]2)N(C(=O)C(c2ccccc2)N2CCNCC2)C1 (some centres unmarked) [Example 13-3]	0.1 to 1
COC(=O)N1CCN(C(C(=O)N2C[C@@H](C)C[C@H]2c2nc(-c3ccc(-c4cc(Cl)c(NC(=O)c5ccc(N6CCN(C(=O)C(C)(C)C)C[C@H]6C)nc5)cc4OC(F)(F)F)cc3)c[nH]2)c2ccccc2)CC1 (some centres unmarked) [Example 13-4]	0.1 to 1
COC(=O)N[C@H](C(=O)N1C[C@@H](C)C[C@H]1c1nc(-c2ccc(-c3cc(Cl)c(NC(=O)c4ccc(N5CCN(C(=O)C(C)(C)C)C[C@H]5C)nc4)cc3OC(F)(F)F)cc2)c[nH]1)[C@H](C)O [Example 13-6]	< 0.1
COC(=O)N[C@@H](CSC)C(=O)N1C[C@@H](C)C[C@H]1c1nc(-c2ccc(-c3cc(Cl)c(NC(=O)c4ccc(N5CCN(C(=O)C(C)(C)C)C[C@H]5C)nc4)cc3OC(F)(F)F)cc2)c[nH]1 [Example 13-7]	< 0.1
COC(=O)N[C@H](C(=O)N1C[C@@H](C)C[C@H]1c1nc(-c2ccc(-c3cc(Cl)c(NC(=O)c4ccc(N5CCN(C(=O)C(C)(C)C)C[C@H]5C)nc4)cc3OC(F)(F)F)cc2)c[nH]1)[C@H](C)OC [Example 13-8]	< 0.1
COCCO[C@H](C)[C@H](NC(=O)OC)C(=O)N1C[C@@H](C)C[C@H]1c1nc(-c2ccc(-c3cc(Cl)c(NC(=O)c4ccc(N5CCN(C(=O)C(C)(C)C)C[C@H]5C)nc4)cc3OC(F)(F)F)cc2)c[nH]1 [Example 13-9]	< 0.1
COC(=O)N[C@H](C(=O)N1C[C@@H](C)C[C@H]1c1nc(-c2ccc(-c3cc(F)c(NC(=O)c4ccc(N5CCN(C(=O)C(C)(C)CO)C[C@H]5C)nc4)cc3OC(F)(F)F)cc2)c[nH]1)C(C)(C)O [Example 13-23]	< 0.1
COC(=O)N[C@H](C(=O)N1C[C@@H](C)C[C@H]1c1nc(-c2ccc(-c3cc(F)c(NC(=O)c4ccc(N5CCN(C(=O)C(C)(C)CO)C[C@H]5C)nc4)cc3OC(F)(F)F)cc2)c[nH]1)[C@H](C)OC [Example 13-25]	0.1 to 1
COC(=O)N[C@H](C(=O)N1C[C@@H](C)C[C@H]1c1nc(-c2ccc(-c3cc(F)c(NC(=O)c4ccc(N5CCN(C(=O)C(C)(C)CO)C[C@H]5C)nc4)cc3OC(F)(F)F)cc2)c[nH]1)[C@H](C)O [Example 13-26]	< 0.1
COC(=O)N[C@@H](CCCCN)C(=O)N1C[C@@H](C)C[C@H]1c1nc(-c2ccc(-c3cc(Cl)c(NC(=O)c4ccc(N5CCN(C(=O)C(C)(C)C)C[C@H]5C)nc4)cc3OC(F)(F)F)cc2)c[nH]1 [Example 13-33]	< 0.1
COC(=O)NC(C(=O)N1C[C@@H](C)C[C@H]1c1nc(-c2ccc(-c3cc(Cl)c(NC(=O)c4ccc(N5CCN(C(=O)C(C)(C)C)C[C@H]5C)nc4)cc3OC(F)(F)F)cc2)c[nH]1)C1CCS(=O)(=O)CC1 (some centres unmarked) [Example 13-36]	1 to 10
COC(=O)N[C@H](C(=O)N1C[C@@H](C)C[C@H]1c1nc(-c2ccc(-c3cc(Cl)c(NC(=O)c4ccc(N5CCN(C(=O)C(C)(C)C)C[C@H]5C)nc4)cc3OC(F)(F)F)cc2)c[nH]1)C1CCCCC1 [Example 13-39]	1 to 10
COC(=O)N[C@@H](C(=O)N1C[C@@H](C)C[C@H]1c1nc(-c2ccc(-c3cc(Cl)c(NC(=O)c4ccc(N5CCN(C(=O)C(C)(C)C)C[C@H]5C)nc4)cc3OC(F)(F)F)cc2)c[nH]1)C1CCCCC1 [Example 13-40]	10 to 1000
COC(=O)N[C@H](C(=O)N1C[C@@H](C)C[C@H]1c1nc(-c2ccc(-c3cc(Cl)c(NC(=O)c4ccc(N5CCN(C(=O)C(C)(C)C)C[C@H]5C)nc4)cc3OC(F)(F)F)cc2)c[nH]1)C1CCCC1 [Example 13-41]	< 0.1
COC(=O)N[C@@H](C(=O)N1C[C@@H](C)C[C@H]1c1nc(-c2ccc(-c3cc(Cl)c(NC(=O)c4ccc(N5CCN(C(=O)C(C)(C)C)C[C@H]5C)nc4)cc3OC(F)(F)F)cc2)c[nH]1)C1C[C@@H](C)O[C@@H](C)C1 (some centres unmarked) [Example 13-43]	1 to 10
COC(=O)NC(C(=O)N1C[C@@H](C)C[C@H]1c1nc(-c2ccc(-c3cc(Cl)c(NC(=O)c4ccc(N5CCN(C(=O)C(C)(C)C)C[C@H]5C)nc4)cc3OC(F)(F)F)cc2)c[nH]1)C1COC1 (some centres unmarked) [Example 13-44]	0.1 to 1
COC(=O)N(C)[C@H](C(=O)N1C[C@@H](C)C[C@H]1c1nc(-c2ccc(-c3cc(Cl)c(NC(=O)c4ccc(N5CCN(C(=O)C(C)(C)CO)C[C@H]5C)nc4)cc3OC(F)(F)F)cc2)c[nH]1)C(C)C [Example 13-45]	0.1 to 1

— US9212168B2 (priority 2011, dated 2015)
